According to patent US10208089B2, “Modulation of complement activity” (priority 2014, dated 2019):
Starred links: 1 amine or outer side, 2 acyl side, 3 side chain; linkers in the order of their positions; H or OH if unused. Positions of bridges follow the written chain, without caps; N, C: chain ends. Non-standard residues stand in square brackets, D forms with d. Residues, ends and D or L forms follow the SMILES beside them. Trp(7-aza) = N[C@@H](Cc1c[nH]c2ncccc12)C(=O)O; Trp(1-Me) = Cn1cc(C[C@H](N)C(=O)O)c2ccccc21; mXylylene = c1cc(C[*:1])cc(C[*:2])c1; pXylylene = c1cc(C[*:2])ccc1C[*:1]; Phg = N[C@H](C(=O)O)c1ccccc1; NMeS = CN[C@@H](CO)C(=O)O; hCys = N[C@@H](CCS)C(=O)O; Nle = CCCC[C@H](N)C(=O)O; Nva = CCC[C@H](N)C(=O)O

What follows are molecules tested against C5 (Homo sapiens, UniProt P01031) (assay: Human hemolysis assay (RBC lysis assay using complete human sera)). Conditions: 7-azatryptophan variant polypeptides of R3008; inhibition of red blood cell lysis.
Chain of C5 (P01031 19-1676): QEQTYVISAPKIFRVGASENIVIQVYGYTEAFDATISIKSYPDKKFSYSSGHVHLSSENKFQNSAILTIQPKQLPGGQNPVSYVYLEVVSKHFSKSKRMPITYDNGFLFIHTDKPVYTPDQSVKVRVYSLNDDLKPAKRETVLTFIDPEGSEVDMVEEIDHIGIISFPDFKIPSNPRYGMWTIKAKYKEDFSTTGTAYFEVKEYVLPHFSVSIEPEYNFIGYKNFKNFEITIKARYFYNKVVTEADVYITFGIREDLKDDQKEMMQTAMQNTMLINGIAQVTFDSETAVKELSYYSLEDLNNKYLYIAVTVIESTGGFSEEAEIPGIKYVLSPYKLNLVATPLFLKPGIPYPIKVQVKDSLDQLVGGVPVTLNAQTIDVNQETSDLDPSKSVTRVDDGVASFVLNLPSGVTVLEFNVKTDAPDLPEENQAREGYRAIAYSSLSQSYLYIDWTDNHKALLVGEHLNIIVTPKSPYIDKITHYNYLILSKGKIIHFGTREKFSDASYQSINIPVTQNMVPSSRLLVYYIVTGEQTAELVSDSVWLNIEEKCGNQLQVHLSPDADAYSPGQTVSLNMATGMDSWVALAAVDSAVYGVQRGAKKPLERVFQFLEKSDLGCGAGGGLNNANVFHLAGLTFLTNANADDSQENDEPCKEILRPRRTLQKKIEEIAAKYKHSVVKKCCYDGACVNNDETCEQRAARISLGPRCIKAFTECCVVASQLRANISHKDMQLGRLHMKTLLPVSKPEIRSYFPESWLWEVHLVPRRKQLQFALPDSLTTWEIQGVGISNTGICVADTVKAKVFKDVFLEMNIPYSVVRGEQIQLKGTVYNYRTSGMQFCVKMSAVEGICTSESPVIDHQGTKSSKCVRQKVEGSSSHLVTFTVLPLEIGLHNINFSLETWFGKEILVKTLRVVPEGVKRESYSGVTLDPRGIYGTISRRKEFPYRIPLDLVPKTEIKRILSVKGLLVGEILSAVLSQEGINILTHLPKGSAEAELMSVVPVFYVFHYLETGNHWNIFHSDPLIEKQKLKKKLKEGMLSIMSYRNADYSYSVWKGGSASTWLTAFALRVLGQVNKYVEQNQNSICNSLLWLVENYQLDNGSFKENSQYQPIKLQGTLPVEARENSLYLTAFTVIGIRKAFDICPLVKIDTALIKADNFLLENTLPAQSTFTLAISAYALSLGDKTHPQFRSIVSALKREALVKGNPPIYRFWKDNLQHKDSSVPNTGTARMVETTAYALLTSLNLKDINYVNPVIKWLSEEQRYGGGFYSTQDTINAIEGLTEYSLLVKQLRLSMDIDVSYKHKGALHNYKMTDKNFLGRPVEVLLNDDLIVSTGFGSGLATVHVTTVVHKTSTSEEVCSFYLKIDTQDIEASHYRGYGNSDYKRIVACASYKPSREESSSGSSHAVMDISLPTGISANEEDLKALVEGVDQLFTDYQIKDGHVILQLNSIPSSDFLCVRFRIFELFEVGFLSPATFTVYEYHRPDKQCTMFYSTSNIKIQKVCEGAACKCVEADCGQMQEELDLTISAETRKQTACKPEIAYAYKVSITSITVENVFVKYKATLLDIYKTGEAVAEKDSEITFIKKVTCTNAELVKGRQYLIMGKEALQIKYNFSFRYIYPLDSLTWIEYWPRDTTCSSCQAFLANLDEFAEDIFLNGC
Assay type: cell-based
Set-up: with complete human sera (Complement Technology, Tyler Tex.) and polypeptides; tissue Complement Technology, Tyler Tex; host or cells: complete human serum
For `CCC[C@H](NC(=O)[C@@H]1CSCc2cccc(c2)CSC[C@H](NC(=O)[C@H](CCC)NC(C)=O)C(=O)N[C@@H](c2ccccc2)C(=O)N[C@@H]([C@@H](C)O)C(=O)N[C@@H](Cc2cn(C)c3ccccc23)C(=O)N[C@@H](CCC(=O)O)C(=O)N[C@@H](Cc2ccc(O)cc2)C(=O)N(C)[C@@H](CO)C(=O)N[C@@H](C)C(=O)N1)C(N)=O` [Compound R3109, [mXylyl(2,10)]Ac-Nvl-C-Phg-T-(1-Me-W)-E-Y-(N-Me)S-A-C-Nvl-NH2] (Ac-[Nva]C[Phg]T[Trp(1-Me)]EY[NMeS]AC[Nva]-NH2; linker 2-10 via mXylylene), the IC50 was > 100 µM.

Same assay, conditions: inhibition of lysis of antibody-sensitized sheep erythrocytes, complete human sera
In the case of `CCC[C@H](NC(=O)[C@@H]1CSCc2cccc(c2)CSC[C@H](NC(=O)[C@H](CCC)NC(C)=O)C(=O)N[C@@H](c2ccccc2)C(=O)N[C@@H]([C@@H](C)O)C(=O)N[C@@H](Cc2c[nH]c3ncccc23)C(=O)N[C@@H](CCC(=O)O)C(=O)N[C@@H](Cc2ccc(O)cc2)C(=O)N(C)[C@@H](CO)C(=O)N[C@@H](Cc2c[nH]cn2)C(=O)NCC(=O)N1)C(N)=O` [Compound R3101, [mXylyl(2,10)]Ac-Nvl-C-Phg-T-azaTrp-E-Y-(N-Me)S-A-H-G-Nvl-NH2] (Ac-[Nva]C[Phg]T[Trp(7-aza)]EY[NMeS]HGC[Nva]-NH2; linker 2-11 via mXylylene), the IC50 is reported as > 100 µM. With `CCC[C@H](NC(=O)[C@@H]1CSCc2cccc(c2)CSC[C@H](NC(=O)[C@H](CCC)NC(C)=O)C(=O)N[C@@H](c2ccccc2)C(=O)N[C@@H]([C@@H](C)O)C(=O)N[C@@H](Cc2c[nH]c3ncccc23)C(=O)N[C@@H](CCC(=O)O)C(=O)N[C@@H](Cc2ccc(O)cc2)C(=O)N2CCC[C@H]2C(=O)N[C@@H](Cc2c[nH]cn2)C(=O)N1)C(N)=O` [Compound R3102, [mXylyl(2,10)]Ac-Nvl-C-Phg-T-azaTrp-E-Y-P-H-C-Nvl-NH2] (Ac-[Nva]C[Phg]T[Trp(7-aza)]EYPHC[Nva]-NH2; linker 2-10 via mXylylene) the IC50 was 0.978 µM. In the case of `CCC[C@H](NC(=O)[C@@H]1CSCc2cccc(c2)CSCC[C@H](NC(=O)[C@H](CCC)NC(C)=O)C(=O)N[C@@H](c2ccccc2)C(=O)N[C@@H]([C@@H](C)O)C(=O)N[C@@H](Cc2c[nH]c3ncccc23)C(=O)N[C@@H](CCC(=O)O)C(=O)N[C@@H](Cc2ccc(O)cc2)C(=O)N(C)[C@@H](CO)C(=O)N[C@@H](Cc2c[nH]cn2)C(=O)N1)C(N)=O` [Compound R3103, [mXylyl(2,10)]Ac-Nvl-homoC-Phg-T-azaTrp-E-Y-(N-Me)S-H-C-Nvl-NH2] (Ac-[Nva][hCys][Phg]T[Trp(7-aza)]EY[NMeS]HC[Nva]-NH2; linker 2-10 via mXylylene), the IC50 is reported as > 25 µM. For `CCC[C@H](NC(=O)[C@@H]1CSCc2ccc(cc2)CSCC[C@H](NC(=O)[C@H](CCC)NC(C)=O)C(=O)N[C@@H](c2ccccc2)C(=O)N[C@@H]([C@@H](C)O)C(=O)N[C@@H](Cc2c[nH]c3ncccc23)C(=O)N[C@@H](CCC(=O)O)C(=O)N[C@@H](Cc2ccc(O)cc2)C(=O)N(C)[C@@H](CO)C(=O)N[C@@H](Cc2c[nH]cn2)C(=O)N1)C(N)=O` [Compound R3104, [pXylyl(2,10)]Ac-Nvl-homoC-Phg-T-azaTrp-E-Y-(N-Me)S-H-C-Nvl-NH2] (Ac-[Nva][hCys][Phg]T[Trp(7-aza)]EY[NMeS]HC[Nva]-NH2; linker 2-10 via pXylylene), the IC50 was > 2 µM. In the case of `CCC[C@H](NC(=O)[C@@H]1CCSCc2cccc(c2)CSC[C@H](NC(=O)[C@H](CCC)NC(C)=O)C(=O)N[C@@H](c2ccccc2)C(=O)N[C@@H]([C@@H](C)O)C(=O)N[C@@H](Cc2c[nH]c3ncccc23)C(=O)N[C@@H](CCC(=O)O)C(=O)N[C@@H](Cc2ccc(O)cc2)C(=O)N(C)[C@@H](CO)C(=O)N[C@@H](Cc2c[nH]cn2)C(=O)N1)C(N)=O` [Compound R3105, [mXylyl(2,10)]Ac-Nvl-C-Phg-T-azaTrp-E-Y-(N-Me)S-H-homoC-Nvl-NH2] (Ac-[Nva]C[Phg]T[Trp(7-aza)]EY[NMeS]H[hCys][Nva]-NH2; linker 2-10 via mXylylene), the IC50 is reported as > 5 µM. `CCC[C@H](NC(=O)[C@@H]1CCSCc2ccc(cc2)CSC[C@H](NC(=O)[C@H](CCC)NC(C)=O)C(=O)N[C@@H](c2ccccc2)C(=O)N[C@@H]([C@@H](C)O)C(=O)N[C@@H](Cc2c[nH]c3ncccc23)C(=O)N[C@@H](CCC(=O)O)C(=O)N[C@@H](Cc2ccc(O)cc2)C(=O)N(C)[C@@H](CO)C(=O)N[C@@H](Cc2c[nH]cn2)C(=O)N1)C(N)=O` [Compound R3106, [pXylyl(2,10)]Ac-Nvl-C-Phg-T-azaTrp-E-Y-(N-Me)S-H-homoC-Nvl-NH2] (Ac-[Nva]C[Phg]T[Trp(7-aza)]EY[NMeS]H[hCys][Nva]-NH2; linker 2-10 via pXylylene) was tested, and the IC50 was > 5 µM. In the case of `CCC[C@H](NC(=O)[C@@H]1CCSCc2cccc(c2)CSCC[C@H](NC(=O)[C@H](CCC)NC(C)=O)C(=O)N[C@@H](c2ccccc2)C(=O)N[C@@H]([C@@H](C)O)C(=O)N[C@@H](Cc2c[nH]c3ncccc23)C(=O)N[C@@H](CCC(=O)O)C(=O)N[C@@H](Cc2ccc(O)cc2)C(=O)N(C)[C@@H](CO)C(=O)N[C@@H](Cc2c[nH]cn2)C(=O)N1)C(N)=O` [Compound R3107, [mXylyl(2,10)]Ac-Nvl-homoC-Phg-T-azaTrp-E-Y-(N-Me)S-H-homoC-Nvl-NH2] (Ac-[Nva][hCys][Phg]T[Trp(7-aza)]EY[NMeS]H[hCys][Nva]-NH2; linker 2-10 via mXylylene), the IC50 is reported as > 75 µM. With `CCC[C@H](NC(=O)[C@@H]1CSCc2cccc(c2)CSC[C@H](NC(=O)[C@H](CCC)NC(C)=O)C(=O)N[C@@H](c2ccccc2)C(=O)N[C@@H]([C@@H](C)O)C(=O)N[C@@H](Cc2cn(C)c3ccccc23)C(=O)N[C@@H](CCC(=O)O)C(=O)N[C@@H](Cc2ccc(O)cc2)C(=O)N(C)[C@@H](CO)C(=O)N[C@@H](C)C(=O)N1)C(N)=O` [Compound R3109, [mXylyl(2,10)]Ac-Nvl-C-Phg-T-(1-Me-W)-E-Y-(N-Me)S-A-C-Nvl-NH2] (Ac-[Nva]C[Phg]T[Trp(1-Me)]EY[NMeS]AC[Nva]-NH2; linker 2-10 via mXylylene) the IC50 was > 100 µM. `CCC[C@H](NC(=O)[C@@H](NC(=O)[C@@H]1CCCN1C(=O)[C@H](Cc1ccc(O)cc1)NC(=O)[C@H](CCC(=O)O)NC(=O)[C@H](Cc1cn(C)c2ccccc12)NC(=O)[C@H](Cc1ccc(O)cc1)NC(=O)[C@@H](NC(=O)[C@H](CC(N)=O)NC(=O)[C@H](CCC(=O)O)NC(=O)[C@H](Cc1ccc(O)cc1)NC(C)=O)C(C)(C)C)c1ccccc1)C(N)=O` [Compound R3110, Ac-Y-E-N-Tbg-Y-(1-Me)W-E-Y-P-Phg-Nvl-NH2] was tested, and the IC50 was 2.94 µM. With `CCC[C@H](NC(=O)[C@@H]1CSCc2cccc(c2)CSC[C@H](NC(=O)[C@@H](NC(=O)[C@@H](NC(=O)[C@H](CCC)NC(C)=O)[C@@H](C)O)c2ccccc2)C(=O)N[C@@H](Cc2c[nH]c3ncccc23)C(=O)N[C@@H](CCC(=O)O)C(=O)N[C@@H](Cc2ccc(O)cc2)C(=O)N(C)[C@@H](CO)C(=O)N[C@@H](C)C(=O)N1)C(N)=O` [Compound R3111, [mXylyl(4,10)]Ac-Nvl-T-Phg-C-azaTrp-E-Y-(N-Me)S-A-C-Nvl-NH2] (Ac-[Nva]T[Phg]C[Trp(7-aza)]EY[NMeS]AC[Nva]-NH2; linker 4-10 via mXylylene) the IC50 was > 5 µM. In the case of `CCCC[C@H](NC(C)=O)C(=O)N[C@H]1CSCc2cccc(c2)CSC[C@@H](C(=O)N[C@@H](CCC)C(N)=O)NC(=O)[C@H](Cc2c[nH]cn2)NC(=O)[C@H](CO)N(C)C(=O)[C@H](Cc2ccc(O)cc2)NC(=O)[C@H](CCC(=O)O)NC(=O)[C@H](Cc2c[nH]c3ncccc23)NC(=O)[C@H]([C@@H](C)O)NC(=O)[C@H](c2ccccc2)NC1=O` [Compound R3112, [mXyly1(2,10)]Ac-Nle-C-Phg-T-azaTrp-E-Y-(N-Me)S-H-C-Nvl-NH2] (Ac-[Nle]C[Phg]T[Trp(7-aza)]EY[NMeS]HC[Nva]-NH2; linker 2-10 via mXylylene), the IC50 is reported as > 5 µM.
